Source: publication PMC10515640, “Structure-Based Optimization of Covalent, Small-Molecule Stabilizers of the 14-3-3σ/ERα Protein–Protein Interaction from Nonselective Fragments” (Journal of the American Chemical Society, 2023)

What was measured:
14-3-3σ/ERα [1] = target: T1, 14-3-3σ/ERα (Homo sapiens, UniProt P03372+P31947); assay: Mass spectrometry dose response, compound binding to 14-3-3σ in the presence of ERα phosphopeptide; settings: 100 nM compound, 100 nM 14-3-3σ, ERα-peptide 2 µM
T1 construct: The 14-3-3 σ isoform (full-length for mass spectrometry and fluorescence anisotropy assays, ΔC for crystallography); made in house; host or cells: E. coli Rosetta 2(DE3)pLysS, pPROEX HTb vector
Outline: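 Covalent labeling of Cys38 on 14-3-3σ was tracked by LC-MS on a Waters Acquity UPLC/Xevo G2-XS Q-Tof, with samples desalted on a Protein BEH-C4 column. Full-length wild type 14-3-3σ (100 nM) plus ERα phosphopeptide was mixed with compound in 10 mM TRIS, pH 8.0, at 50 μl per well. Percent bound was measured at several time points.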

14-3-3σ/ERα [2] = target: T1, 14-3-3σ/ERα; assay: Fluorescence anisotropy protein titration, FAM-labeled ERα peptide; assay type: binding; settings: 10 nM FAM-ERα peptide; for X Fold stabilization (100 µM compound) of 14-3-3σ/ERα: versus DMSO reference; for Kd: 100 µM compound, overnight incubation
Description: To evaluate compound-mediated stabilization of the 14-3-3σ/ERα complex directly, FA protein titrations were performed at a saturating concentration of compound. FA protein titrations allowed the quantification of the cooperative effect by comparing the apparent dissociation constants (appKD) of the binary and ternary complexes. 14-3-3σ was titrated into 10 nM FAM-labeled ERα peptide in the presence of DMSO or 100 μM of the compounds (Table S4). […]
diluted in buffer (10 mM HEPES, pH 7.5, 150 mM NaCl, 0.1% Tween20, 1 mg/mL Bovine Serum Albumin (BSA; Sigma-Aldrich). Final DMSO in the assay was always 1%. […]
Protein titrations were made by titrating 14-3-3σ in a 2-fold dilution series (starting at 300 µM) to a mix of fluorescein-labeled peptide (10 nM) and DMSO or compound (100 µM). Fluorescence anisotropy measurements were performed after overnight incubation at room temperature. […]
Wells containing only FAM-peptide were used to set as G-factor at 35 mP. Data reported are at endpoint. EC50 and apparent Kd values were obtained from fitting the data with a four-parameter logistic model (4PL) in GraphPad Prism 7 for Windows. Data was obtained and averaged based on either three (compound titrations) or two (protein titrations) independent experiments.

14-3-3σ = target: T2, 14-3-3σ (Homo sapiens, UniProt P31947); assay: Mass spectrometry dose response, compound binding to 14-3-3σ in the absence of peptide (apo); settings: 100 nM compound, 100 nM 14-3-3σ
T2 construct: The 14-3-3 σ isoform (full-length for mass spectrometry and fluorescence anisotropy assays, ΔC for crystallography); made in house; host or cells: E. coli Rosetta 2(DE3)pLysS, pPROEX HTb vector
T2 sequence (P31947 1-248): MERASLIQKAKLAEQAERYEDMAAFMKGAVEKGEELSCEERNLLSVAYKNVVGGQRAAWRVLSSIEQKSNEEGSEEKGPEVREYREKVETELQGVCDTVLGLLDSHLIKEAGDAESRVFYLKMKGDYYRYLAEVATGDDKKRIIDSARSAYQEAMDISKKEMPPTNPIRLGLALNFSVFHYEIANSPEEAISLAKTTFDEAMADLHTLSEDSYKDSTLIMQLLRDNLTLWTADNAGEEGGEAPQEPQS
Outline: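 Covalent binding of compounds to Cys38 of full-length wild type human 14-3-3σ (100 nM) was measured by LC-MS without peptide present. Compounds from 50 mM DMSO stocks were serially diluted 3-fold and 1000 nl transferred to plates in TRIS buffer (10 mM, pH 8.0), 50 μl per well. Samples were desalted on a BEH-C4 column and analysed on a Xevo G2-XS Q-Tof at several time points.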

14-3-3σ/ERα [3] = target: T1, 14-3-3σ/ERα; assay: Fluorescence anisotropy compound titration, FAM-labeled ERα peptide; assay type: binding; settings: 10 nM ERα-FAM labeled peptide, 1 µM 14-3-3σ, overnight incubation (24 h); read-out: EC50 value ERα (FA compound titration)
Outline: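 Fluorescence anisotropy compound titration measuring stabilization of the 14-3-3σ/ERα interaction: compounds were titrated in a 2-fold dilution series (starting at 500 or 1000 µM) into a mix of 10 nM fluorescein-labeled ERα peptide and 1 µM 14-3-3σ (about EC25 of the complex) in HEPES buffer with 1% DMSO, read after overnight incubation at room temperature; EC50 from 4PL fitting.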

14-3-3σ/C-RAF [4] = target: T3, 14-3-3σ/C-RAF (Homo sapiens, UniProt P31947); assay: Fluorescence anisotropy compound titration, FAM-labeled C-RAF peptide; assay type: binding; settings: 10 nM C-RAF-FAM labeled peptide, 5 µM 14-3-3σ, overnight incubation; read-out: EC50 value C-RAF (FA compound titration)
T3 construct: The 14-3-3 σ isoform (full-length for mass spectrometry and fluorescence anisotropy assays, ΔC for crystallography); made in house; host or cells: E. coli Rosetta 2(DE3)pLysS, pPROEX HTb vector
T3 sequence (P31947 1-248): T2 sequence (P31947 1-248)
Outline: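 A fluorescence anisotropy compound titration measured how compounds stabilize binding of 14-3-3σ to a fluorescein-labeled C-RAF peptide. Compounds were diluted 2-fold, from 500 or 1000 µM, into 10 nM labeled peptide with 5 µM 14-3-3σ, roughly its EC25, in HEPES buffer with 1% DMSO. Plates were read after overnight incubation at room temperature. EC50 values came from 4PL fits over three independent experiments.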

14-3-3σ/C-RAF [5] = target: T3, 14-3-3σ/C-RAF; assay: Mass spectrometry dose response, compound binding to 14-3-3σ in the presence of C-RAF phosphopeptide; settings: 100 nM compound, 100 nM 14-3-3σ, C-RAF peptide 18 µM
Outline: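 Covalent binding of compounds to the native Cys38 of 14-3-3σ was monitored by LC-MS on a Waters Acquity UPLC/Xevo G2-XS Q-Tof, with samples desalted on a BEH-C4 column. Full-length wild type 14-3-3σ (100 nM) with C-RAF peptide in TRIS buffer (10 mM, pH 8.0) was incubated with compound dose series at room temperature.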

Structure (SMILES)	Percentage (%) bound of compound to 14-3-3σ, ERα 1h (14-3-3σ/ERα [1]) [%]	Percentage (%) bound of compound to 14-3-3σ, ERα 8h (14-3-3σ/ERα [1]) [%]	Percentage (%) bound of compound to 14-3-3σ, ERα 16h (14-3-3σ/ERα [1]) [%]	Percentage (%) bound of compound to 14-3-3σ, ERα 24h (14-3-3σ/ERα [1]) [%]	X Fold stabilization (100 µM compound) of 14-3-3σ/ERα (14-3-3σ/ERα [2]) [fold]	Kd (14-3-3σ/ERα [2]) [nM]	Percentage (%) bound of compound to 14-3-3σ, APO 1h (14-3-3σ) [%]	Percentage (%) bound of compound to 14-3-3σ, APO 8h (14-3-3σ) [%]	Percentage (%) bound of compound to 14-3-3σ, APO 16h (14-3-3σ) [%]	Percentage (%) bound of compound to 14-3-3σ, APO 24h (14-3-3σ) [%]	EC50 (14-3-3σ/ERα [3]) [µM]	EC50 (14-3-3σ/C-RAF [4]) [µM]	Percentage (%) bound of compound to 14-3-3σ, CRAF 1h (14-3-3σ/C-RAF [5]) [%]	Percentage (%) bound of compound to 14-3-3σ, CRAF 8h (14-3-3σ/C-RAF [5]) [%]	Percentage (%) bound of compound to 14-3-3σ, CRAF 24h (14-3-3σ/C-RAF [5]; 24h) [%]	Percentage (%) bound of compound to 14-3-3σ, CRAF 24h (14-3-3σ/C-RAF [5]; head prints 24h) [%]
O=C(CCl)N1CCC2(CC1)CCN(C(=O)C1(Nc3ccc(Cl)cc3)CCOCC1)CC2 [compound 170]	38.2	68.1	86.2	94.0	12	119	1.0	1.8	3.4	5.3	8 ± 1	58 ± 11	3.6	8.0	19.7	12.1
CC1CC(Nc2ccc(Cl)cc2)(C(=O)NCC2CC3(CCN(C(=O)CCl)CC3)C2)CC(C)O1 (centres unmarked) [compound 180]	40.8	50.1	84.4	96.1	7	192	1.4	2.9	7.3	11.5	10 ± 2	> 150	0	2.5	8.5	4.5
CC1CC(Nc2ccc(Cl)cc2)(C(=O)N2CCC(CNC(=O)CCl)CC2)CC(C)O1 (centres unmarked) [compound 178]	24.6	36.8	77.5	96.4	15	94	0.9	1.7	2.4	2.5	12 ± 1	86 ± 11	0	0.5	5.7	2.0
O=C(CCl)N1CCC2(CC1)CC(NC(=O)C1(Nc3ccc(Cl)cc3)CCOCC1)C2 [compound 163]	42.3	80.4	96.6	99.8	18	77	5.6	11.2	22.6	40.5	4 ± 1	57 ± 5	6.0	13.4	49.6	27.1
O=C(CCl)NCC1CCN(C(=O)C2(Nc3ccc(Cl)cc3)CCOCC2)CC1 [compound 127]	9.5	19.6	56.8	85.2	19	77	0	0	1.0	2.0	2 ± 0.3	> 150	1.1	2.9	10.5	7.4
O=C(CCl)NCCCC1CCN(C(=O)C2(Nc3ccc(Cl)cc3)CCOCC2)CC1 [compound 149]	7.6	16.2	37.7	86.7	55	27	0.6	0.8	14.2	17.7	4 ± 0.4		0	1.0	23.3	3.4
